Experimental data reported in patent publication US6399782B1, “Benzimidazole inhibitors of fructose 1,6-bisphosphatase” (Metabasis Therapeutics, Inc., priority 1997, dated 2002).
Counter-ions that a name gives are not always drawn.

Experiments:
mouse liver FBPase = molecular target: T1, mouse liver FBPase (Mus musculus, UniProt Q9QXD6); assay: Inhibition of mouse liver FBPase; assay type: biochemical; details: partially purified mouse liver fraction
T1 construct: This partially purified fraction was used for enzyme assays; from tissue; host or cells: mouse liver, 45-75% ammonium sulfate fraction
T1 sequence (Q9QXD6 2-338 limits assumed): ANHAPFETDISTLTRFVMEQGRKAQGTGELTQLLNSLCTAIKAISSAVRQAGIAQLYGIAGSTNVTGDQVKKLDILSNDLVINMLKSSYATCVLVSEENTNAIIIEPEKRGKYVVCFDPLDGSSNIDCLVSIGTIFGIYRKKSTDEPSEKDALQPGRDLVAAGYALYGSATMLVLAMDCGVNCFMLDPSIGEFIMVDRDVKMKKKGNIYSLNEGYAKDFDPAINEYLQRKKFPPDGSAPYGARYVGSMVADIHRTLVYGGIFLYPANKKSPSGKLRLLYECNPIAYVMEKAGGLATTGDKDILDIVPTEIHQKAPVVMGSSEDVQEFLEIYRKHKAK
Description: Enzymatic activity was measured spectrophotometrically in reactions that coupled the formation of product (fructose 6-phosphate) to the reduction of dimethylthiazoldiphenyltetrazolium bromide (MTT) via NADP and phenazine methosulfate (PMS), using phosphoglucose isomerase and glucose 6-phosphate dehydrogenase as the coupling enzymes. Reaction mixtures (200 μl) were made up in 96-well microtitre plates, and consisted of 50 mM Tris-HCl, pH 7.4, 100 mM KCl, 5 mM EGTA, 2 mM MgCl2, 0.2 mM NADP, 1 mg/ml BSA, 1 mM MTT, 0.6 mM PMS, 1 unit/mL phosphoglucose isomerase, 2 units/mL glucose 6-phosphate dehydrogenase, and 0.150 mM substrate (fructose 1,6-bisphosphate). Inhibitor concentrations were varied from 0.01 μM to 10 μM.
Mouse liver FBPase was obtained by homogenizing freshly isolated mouse liver in 100 mM Tris-HCl buffer, pH 7.4, containing 1 mM EGTA, and 10% glycerol. […] This fraction was redissolved in the homogenization buffer and desalted on a PD-10 gel filtration column (Biorad) eluted with same. This partially purified fraction was used for enzyme assays. Both rat liver and mouse liver FBPase were assayed as described for human liver FBPase.

rat hepatocytes = assay: Inhibition of gluconeogenesis in rat hepatocytes; assay type: cell-based; details: glucose production from lactate/pyruvate, isolated rat hepatocytes, 1 hour
Description: Hepatocytes were prepared from overnight fasted Sprague-Dawley rats (250-300 g) according to the procedure of Berry and Friend (Berry, M. N., Friend, D. S., 1969, J. Cell. Biol. 43, 506-520) as modified by Groen (Groen, A. K., Sips, H. J., Vervoorn, R. C., Tager, J. M., 1982, Eur. J. Biochem. 122, 87-93). Hepatocytes (75 mg wet weight/mL) were incubated in 1 ml Krebs-bicarbonate buffer containing 10 mM Lactate, 1 mM pyruvate, 1 mg/mL BSA, and test compound concentrations from 1 to 500 μM. Incubations were carried out in a 95% oxygen, 5% carbon dioxide atmosphere in closed, 50-mL Falcon tubes submerged in a rapidly shaking water bath (37° C.). After 1 hour, an aliquot (0.25 mL) was removed, transferred to an Eppendorf tube and centrifuged. 50 μL of supernatant was then assayed for glucose content using a Sigma Glucose Oxidase kit as per the manufacturer's instructions.

[1] = Estimation of the oral bioavailability of prodrugs of phosphonic acids; assay type: in vivo; details: rat; for % Oral bioavailability: prodrug by oral gavage approximately 20 or 40 mg/kg parent equivalents, urinary recovery of parent vs i.v. parent
Description: Prodrugs were dissolved in 10% ethanol/90% polyethylene glycol (mw 400) and administered by oral gavage at doses of approximately 20 or 40 mg/kg parent compound equivalents to 6-hour fasted, Sprague Dawley rats (220-240 g). The rats were subsequently placed in metabolic cages and urine was collected for 24 hours. The quantity of parent compound excreted into urine was determined by HPLC analysis. An ODS column eluted with a gradient from potassium phosphate buffer, pH 5.5 to acetonitrile was employed for these measurements. Detection was at 310-325 nm. […] Parent compounds were typically dissolved in dimethyl sulfoxide, and administered via the tail vein in animals that were briefly anesthetized with halothane.

Compound | IC50 (mouse liver FBPase) [µM] | melting point | other results
Cc1c(Cl)cc2c(nc(-c3ccc(P(=O)(O)O)o3)n2CC2CC2)c1C [Compound 13.61, 6-Chloro-4,5-dimethyl-1-cyclopropylmethyl-2-(2-phosphono-5-furanyl)benzimidazole] | > 20 | 219 to 220 °C | –
CC(C)Cn1c(-c2ccc(P(=O)(O)O)o2)nc2c(N)c(Cl)cc(Cl)c21 [Compound 12.50, 4-Amino-5,7-dichloro-1-isobutyl-2-(2-phosphono-5-furanyl)benzimidazole] | – | 205 to 207 °C | IC50 (rat hepatocytes; Hepatocyte): 17 µM
CC(C)Cn1c(-c2ccc(P(=O)(O)O)o2)nc2c(N)c(F)cc(CCCCBr)c21 [Compound 12.82, 4-Amino-5-fluoro-7-(4-bromobutyl)-1-isobutyl-2-(2-phosphono-5-furanyl)benzimidazole] | 0.3 | 200 to 220 °C (dec.) | IC50 (rat hepatocytes; Hepatocyte): 2.2 µM
CC(C)Cn1c(-c2ccc(P(=O)(O)O)o2)nc2c(N)c(Br)cc(Br)c21 [Compound 12.42, 4-Amino-5,7-dibromo-1-isobutyl-2-[2-(5-phosphono)furanyl]benzimidazole] | – | – | IC50 (rat hepatocytes): 14 µM
CC(C)C(=O)OCOP(=O)(OCOC(=O)C(C)C)c1ccc(-c2nc3c(N)ncnc3n2CC(C)(C)C)o1 [Compound A] | – | – | oral bioavailability (calculated 6.2/76.8) ([1]; oral approximately 20 mg/kg): approximately 8%; % of oral dose recovered in urine ([1]; oral approximately 20 mg/kg, parent compound in 24 hour urine): 6.2%
CC(C)Cn1c(-c2ccc(P(=O)(O)O)o2)nc2c(N)c(F)cc(CCCO)c21 [Compound 12.79, 4-Amino-7-(propane-3-ol)-5-fluoro-1-isobutyl-2-(2-phosphono-5-furanyl)benzimidazole] | 0.72 | 170 to 173 °C | IC50 (rat hepatocytes; Hepatocyte): 1 µM
Nc1cccc2c1nc(-c1ccc(P(=O)(O)O)o1)n2CCCCl [Compound 12.35, 4-Amino-1-(3-chloropropyl)-2-[2-(5-phosphono)furanyl]benzimidazole] | > 20 | – | –
CC(=O)OCC1COP(=O)(c2ccc(-c3nc4ccc(Cl)cc4n3CC(C)C)o2)OC1 (stereo not drawn) [Compound 31.14, 6-Chloro-1-isobutyl-2-{5-[2-(acetoxymethyl)-propan-1,3-yl]phosphono-2-furanyl}benzimidazole] | – | – | % Oral bioavailability [1]: 12.5%
CC(C)Cn1c(-c2ccc(P(=O)(O)O)o2)nc2c(N)c(F)cc(Br)c21 [Compound 12.62, 4-Amino-5-fluoro-7-bromo-1-isobutyl-2-(2-phosphono-5-furanyl)benzimidazole] | – | 195 to 200 °C | IC50 (rat hepatocytes; Hepatocyte): 5 µM
Cc1c(Cl)ccc2c1nc(-c1ccc(P(=O)(O)O)o1)n2CC(C)C [Compound 13.96, 1-Isobutyl-4-methyl-5-chloro-2-(2-phosphono-5-furanyl)benzimidazole] | 0.7 | – | –
4-Amino-5-fluoro-7-bromo-1-isobutyl-2-(1-methoxymethyl-3-bispivaloyloxymethylphosphonate)benzimidazole [Compound 18.7] | – | – | % Oral bioavailability [1]: 6.9%
CC(C)Cn1c(-c2ccc(P(=O)(O)O)o2)nc2c(N)c(F)cc(CCCBr)c21 [Compound 12.80, 4-Amino-5-fluoro-7-(3-bromopropyl)-1-isobutyl-2-(2-phosphono-5-furanyl)benzimidazole] | 0.3 | 190 to 195 °C (dec.) | IC50 (rat hepatocytes; Hepatocyte): 1.6 µM
Nc1cccc2c1nc(-c1ccc(P(=O)(O)O)o1)n2Cc1ccoc1 [Compound 12.37, 4-Amino-1-(3-furanylmethyl)-2-[2-(5-phosphono)furanyl]benzimidazole] | 1.27 | – | –
CC(C)Cn1c(-c2ccc(P(=O)(O)O)o2)nc2c(N)c(F)cc(CCCN(C)C)c21 [Compound 12.84, 4-Amino-5-fluoro-7-(3-N,N-dimethylpropylamine)-1-isobutyl-2-(2-phosphono-5-furanyl)benzimidazole hydrobromide salt] | 0.5 | – | –
CC(C)(C)Cn1c(-c2ccc(P(=O)(O)O)o2)nc2c(F)cccc21 [Compound 13.25, 4-Fluoro-1-neopentyl-2-(2-phosphonofuranyl)benzimidazole] | > 20 | – | –
CC(C)Cn1c(-c2ccc(P(=O)(O)O)o2)nc2c(N)c(Br)ccc21 [Compound 12.44, 4-Amino-5-bromo-1-isobutyl-2-[2-(5-phosphono)furanyl]benzimidazole] | – | – | IC50 (rat hepatocytes): 14 µM
CC(C)Cn1c(COCP(=O)(O)O)nc2c(N)c(F)cc(Br)c21 [Compound 15.1, 4-Amino-5-fluoro-7-bromo-1-isobutyl-2-(1-methoxymethyl-3-phosphono)benzimidazole] | 1.5 | 200 to 202 °C (dec.) | IC50 (rat hepatocytes; Hepatocyte): 16 µM
CC(C)(C)Cn1c(-c2ccc(P(=O)(O)O)o2)nc2ccc(Cl)cc21 [Compound 13.56, 6-Chloro-1-neopentyl-2-(2-phosphono-5-furanyl)benzimidazole] | > 20 | – | –
COC(=O)c1cccc(Cn2c(-c3ccc(P(=O)(O)O)o3)nc3c(N)cccc32)c1 [Compound 12.6, 4-Amino-1-(3-carbomethoxybenzyl)-2-[2-(5-phosphono)furanyl]benzimidazole] | > 20 | 198 to 202 °C | –
O=C(NCP(=O)(O)O)c1nc2ccccc2[nH]1 [Compound 13.66, N-(Phosphonomethyl)benzimidazole-2-carboxamide] | > 20 | 258 to 260 °C | –
CC(C)Cn1c(-c2ccc(P(=O)(O)O)o2)nc2c(N)c(F)c(Cl)cc21 [Compound 12.63, 4-Amino-5-fluoro-6-chloro-1-isobutyl-2-(2-phosphono-5-furanyl)benzimidazole] | – | 175 to 180 °C | IC50 (rat hepatocytes; Hepatocyte): 16 µM
CC(C)Cn1c(-c2ccc(P(=O)(OCOC(=O)C(C)(C)C)OCOC(=O)C(C)(C)C)o2)nc2c(N)c(Cl)cc(Cl)c21 [Compound 18.2, 4-Amino-5,7-dichloro-1isobutyl-2-(5-furanyl-2-bispivaloyloxymethylphosphonate)benzimidazole] | – | – | IC50 (rat hepatocytes): 17 µM
CC(C)Cn1c(-c2ccc(P(=O)(O)O)o2)nc2c(N)c(F)cc(Cl)c21 [Compound 12.54, 4-Amino-5-fluoro-7-chloro-1-isobutyl-2-(2-phosphono-5-furanyl)benzimidazole] | 1.07 | 220 to 225 °C | –
CC(C)Cn1c(-c2ccc(P(=O)(O)O)o2)nc2c(O)cccc21 [Compound 13.21, 4-Hydroxy-1-isobutyl-2-(2-phosphono-5-furanyl)benzimidazole] | > 20 | 244 to 245 °C | –
CCc1c(Cl)c(F)cc2[nH]c(-c3ccc(P(=O)(O)O)o3)nc12 [Compound 13.80, 5-Fluoro-6-chloro-7-ethyl-2-(2-phosphono-5-furanyl)benzimidazole] | – | 165 to 190 °C | –
O=C(O)c1ccccc1-n1c(-c2ccc(P(=O)(O)O)o2)nc2cc(Cl)ccc21 [Compound 13.13, 1-(2-Carboxyphenyl)-2-(2-phosphono-5-furanyl)-5-chloro benzimidazole] | – | 220 to 224 °C | –
CCC(CC)n1c(-c2ccc(P(=O)(O)O)o2)nc2c(N)c(F)ccc21 [Compound 12.76, 4-Amino-5-fluoro-1-(3-pentyl)-2-(2-phosphono-5-furanyl)benzimidazole] | – | 180 to 185 °C (dec.) | –
CC(C)Cn1c(-c2ccc(P(=O)(O)O)o2)nc2c(N)c(F)cc(-c3ccccc3)c21 [Compound 12.67, 4-Amino-7-phenyl-5-fluoro-1-isobutyl-2-(2-phosphono-5-furanyl)benzimidazole] | – | 240 to 241 °C (dec.) | –
